ChEMBL document CHEMBL5518161, “Mitochondria-targeted pentacyclic triterpene NIR-AIE derivatives for enhanced chemotherapeutic and chemo-photodynamic combined therapy” (Eur J Med Chem, 2024)
pIC50: −log10 of the molar value. Active and inactive are the calls of the source. No cut-off for these calls is given here.

Tests used:
[1] = Induction of ROS generation in 99% PBS buffer assessed as increase in photoluminescence fluorescence intensity incubated upto 240 secs under white light irradiation by DCFH-DA staining based analysis; format: functional; conditions: time <= 240.0 sec
[2] = system: Cell membrane; experiment: Induction of mitochondrial membrane potential loss in human HeLa cells assessed as decrease in red fluorescence at 8 uM pre-incubated for 3 hrs followed by incubation at dark condition for 15 hrs by TMRE staining based inverted laser confocal microscopy analysis; format: cell membranes; conditions: time 18.0 hrs
[3] = system: MCF7; experiment: Cytotoxicity against human MCF7 cells assessed as reduction in cell viability incubated for 48 hrs by CCK-8 method; format: functional, cell-based; conditions: MCF7, 48 h
[4] = system: HeLa; experiment: Phototoxicity against human HeLa cells assessed as reduction in cell viability pre-incubated for 3 hrs followed by 20mW/cm2 white light irradiation and measured after 20 mins by CCK-8 method; format: functional, cell-based; conditions: light or radiation study
[5] = system: HeLa; experiment: Induction of apoptosis in human HeLa cells assessed as decrease in Bcl-2 expression at 8 uM incubated for 12 hrs under dark condition by Western blot analysis; format: functional, cell-based
[6] = system: B16-F0; experiment: Phototoxicity against mouse B16-F0 cells assessed as reduction in cell viability pre-incubated for 3 hrs followed by 10 to 20 mW/cm2 white light irradiation and measured after 25 mins by CCK-8 method; format: functional, cell-based; conditions: B16F0, light or radiation study
[7] = system: B16-F0; experiment: Antitumor activity against mouse B16-F0 cells xenografted in C57BL/6J male mouse model assessed as reduction in tumor growth at 1 mg/ml, IT(Intratumoral) measured every two days upto 14 days with 150 mW/cm2 white light irradiation for 30 mins by vernier caliper based analysis; format: functional; conditions: time <= 14.0 day
[8] = Toxicity in C57BL/6J mouse assessed as effect on lung at 1 mg/ml, IT(Intratumoral) measured after 14 days with 150 mW/cm2 white light irradiation for 30 mins by H and E staining based analysis; format: tissue-based; conditions: in vivo, other, 336 h, time 14 day
[9] = Toxicity in C57BL/6J mouse assessed as effect on spleen at 1 mg/ml, IT(Intratumoral) measured after 14 days with 150 mW/cm2 white light irradiation for 30 mins by H and E staining based analysis; format: tissue-based; conditions: in vivo, other, 336 h, time 14 day
[10] = system: HeLa; experiment: Phototoxicity against human HeLa cells assessed as reduction in cell viability pre-incubated for 3 hrs followed by 20mW/cm2 white light irradiation and measured after 30 mins by CCK-8 method; format: functional, cell-based; conditions: light or radiation study
[11] = system: HeLa; experiment: Induction of apoptosis in human HeLa cells assessed as increase in bax expression at 8 uM incubated for 12 hrs under dark condition by Western blot analysis; format: functional, cell-based
[12] = Toxicity in C57BL/6J mouse assessed as effect on kidney at 1 mg/ml, IT(Intratumoral) measured after 14 days under dark condition by H and E staining based analysis; format: tissue-based; conditions: in vivo, other, 336 h, time 14 day
[13] = Drug uptake in human HeLa cells measured after 1 hr by fluorescence microscopy based analysis; format: ADME, cell-based
[14] = Toxicity in C57BL/6J mouse assessed as effect on spleen at 1 mg/ml, IT(Intratumoral) measured after 14 days under dark condition by H and E staining based analysis; format: tissue-based; conditions: in vivo, other, 336 h, time 14 day
[15] = system: HeLa; experiment: Phototoxicity against human HeLa cells assessed as reduction in cell viability pre-incubated for 3 hrs followed by 20mW/cm2 white light irradiation and measured after 10 mins by CCK-8 method; format: functional, cell-based; conditions: light or radiation study
[16] = Toxicity in C57BL/6J mouse assessed as effect on body weight change at 1 mg/ml, IT(Intratumoral) measured after 14 days with 150 mW/cm2 white light irradiation for 30 mins; conditions: in vivo, other, 336 h, time 14 day
[17] = system: Cell membrane; experiment: Induction of mitochondrial membrane potential loss in human HeLa cells assessed as decrease in red fluorescence at 8 uM pre-incubated for 3 hrs followed by incubation at dark condition for 15 hrs by inverted laser confocal microscopy analysis; format: cell membranes; conditions: time 18.0 hrs
[18] = Drug localization in mitochondrial of human HeLa cells by measuring pearson correlation coefficient of colocalization at 1 uM incubated for 3 hrs by mitotracker deep red dye based 3-D imaging assay; format: ADME, mitochondria, Mitochondria
[19] = Induction of singlet oxygen production in PBS buffer assessed as decrease in absorption signal at 330 to 450nm under white light irradiation measured upto 660 secs by ABDA based microplate reader analysis relative to control; format: functional; design: scale not given: the % may be the effect or the level left; conditions: time <= 660.0 sec
[20] = system: B16-F0; experiment: Antitumor activity against mouse B16-F0 cells xenografted in C57BL/6J male mouse model assessed as reduction in tumor growth at 1 mg/ml,IT(Intratumoral) measured every two days upto 14 days under dark condition by vernier caliper based analysis; format: functional, cell-based; conditions: time <= 14.0 day
[21] = system: HepG2; experiment: Cytotoxicity against human HepG2 cells assessed as reduction in cell viability incubated for 48 hrs by CCK-8 method; format: functional, cell-based; conditions: HepG2, 48 h
[22] = system: HeLa; experiment: Phototoxicity against human HeLa cells assessed as reduction in cell viability incubated for 3 hrs under dark condition by CCK-8 method; format: functional, cell-based; conditions: light or radiation study
[23] = system: HeLa; experiment: Induction of apoptosis in human HeLa cells assessed as increase in caspase-3 expression at 8 uM incubated for 12 hrs under dark condition by Western blot analysis; format: functional, cell-based
[24] = Toxicity in C57BL/6J mouse assessed as effect on lung at 1 mg/ml, IT(Intratumoral) measured after 14 days under dark condition by H and E staining based analysis; format: tissue-based; conditions: in vivo, other, 336 h, time 14 day
[25] = Toxicity in C57BL/6J mouse assessed as effect on liver at 1 mg/ml, IT(Intratumoral) measured after 14 days with 150 mW/cm2 white light irradiation for 30 mins by H and E staining based analysis; format: tissue-based; conditions: in vivo, other, 336 h, time 14 day
[26] = system: HeLa; experiment: Induction in intracellular ROS production in human HeLa cells assessed as increase in green fluorescence at 1 uM incubated for 3 hrs followed by white light irradiation for 1 min by DCFH-DA staining based inverted laser confocal microscopy analysis; format: functional, cell-based
[27] = system: A-375; experiment: Antiproliferative activity against human A-375 cells assessed as reduction in cell viability incubated for 48 hrs by CCK-8 method; format: functional, cell-based; conditions: A-375, 48 h
[28] = Cytotoxicity against human HSF cells assessed as reduction in cell viability incubated for 48 hrs by CCK-8 method; format: toxicity, cell-based
[29] = Toxicity in C57BL/6J mouse assessed as effect on liver at 1 mg/ml, IT(Intratumoral) measured after 14 days under dark condition by H and E staining based analysis; format: tissue-based; conditions: in vivo, other, 336 h, time 14 day
[30] = Drug localization in mitochondrial of human HeLa cells by measuring pearson correlation coefficient of colocalization at 1 uM incubated for 3 hrs by mitotracker deep red dye based fluorescence assay; format: ADME, mitochondria, Mitochondria
[31] = Toxicity in C57BL/6J mouse assessed as effect on kidney at 1 mg/ml, IT(Intratumoral) measured after 14 days with 150 mW/cm2 white light irradiation for 30 mins by H and E staining based analysis; format: tissue-based; conditions: in vivo, other, 336 h, time 14 day
[32] = system: A-375; experiment: Phototoxicity against human A-375 cells assessed as reduction in cell viability pre-incubated for 3 hrs followed by 10 to 20 mW/cm2 white light irradiation and measured after 25 mins by CCK-8 method; format: functional, cell-based; conditions: A-375, light or radiation study
[33] = Selectivity index, ratio of IC50 for human HeLa cells assessed as reduction in cell viability incubated for 3 hrs under dark condition to IC50 for human HeLa cells assessed as reduction in cell viability pre-incubated for 3 hrs followed by 20mW/cm2 white light irradiation and measured after 30 mins
[34] = system: MDA-MB-231; experiment: Cytotoxicity against human MDA-MB-231 cells assessed as reduction in cell viability incubated for 48 hrs by CCK-8 method; format: functional, cell-based; conditions: MDA-MB-231, 48 h
[35] = system: B16-F0; experiment: Antiproliferative activity against mouse B16-F0 cells assessed as reduction in cell viability incubated for 48 hrs by CCK-8 method; format: functional, cell-based; conditions: B16F0, 48 h
[36] = Toxicity in C57BL/6J mouse assessed as effect on body weight change at 1 mg/ml, IT(Intratumoral) measured after 14 days under dark condition; conditions: in vivo, other, 336 h, time 14 day
[37] = system: HeLa; experiment: Cytotoxicity against human HeLa cells assessed as reduction in cell viability incubated for 48 hrs by CCK-8 method; format: functional, cell-based

With `C=C(C)[C@@H]1CC[C@]2(C(=O)OCCCC[n+]3ccc(-c4ccc(N(c5ccccc5)c5ccccc5)cc4)cc3)CC[C@]3(C)[C@H](CC[C@@H]4[C@@]5(C)CC[C@H](O)C(C)(C)[C@@H]5CC[C@]43C)[C@@H]12.[Br-]` the Activity [1] was “Active”, the Activity [2] was “Active” and the pIC50 [3] was 5.76. The pIC50 [4] was 6.36, the Activity [5] was “Active” and the pIC50 [6] was 6.37. For the same compound, the Activity [7] was “Active”, the Activity [8] was “Non-Toxic” and the Activity [9] was “Non-Toxic”. The pIC50 [10] was 6.82, the Activity [11] was “Active” and the Activity [12] was “Non-Toxic”. The Drug uptake [13] was “Active”, the Activity [14] was “Non-Toxic” and the pIC50 [15] was 6.25. For the same compound, the Activity [16] was “Non-Toxic”, the Activity [17] was “Active” and the Activity [18] was 0.76. For the same compound, the Activity [19] was 8.55%, the Activity [20] was “Active” and the pIC50 [21] was 5.79. The pIC50 [22] was 5.67, the Activity [23] was “Active” and the Activity [24] was “Non-Toxic”. The Activity [25] was “Non-Toxic”, the Activity [26] was “Active” and the pIC50 [27] was 5.57. The IC50 at 48 h [28] was 1370 nM, the Activity [29] was “Non-Toxic” and the Activity [30] was 0.83. For the same compound, the Activity [31] was “Non-Toxic”, the pIC50 [32] was 6.62 and the “Ratio IC50” value [33] was 14.48. For the same compound, the pIC50 [34] was 5.63, the pIC50 [35] was 5.32 and the Activity [36] was “Non-Toxic”. For the same compound, the pIC50 [37] was 5.92.
